Source: patent US5602176A, “Phenyl carbamate” (priority 1987, dated 1997)

Tests used:
[1] = In vitro skin diffusion test (penetration through the skin); type: in vitro ADME; settings: rat skin
Description: The penetration through the skin of the compounds for administration according to the invention may be observed in standard in vitro or in vivo tests.
One in vitro test is the well known diffusion test which may be effected according to the principles set out in GB 2098865 A and by T. J. Franz in J. Invest. Dermatol. (1975) 64, 194-195. Solutions containing the active agent in unlabelled or radioactively labelled form are applied to one side of isolated pieces of intact human skin or hairless rat skin about 2 cm^2 in area. The other side of the skin is in contact with physiological saline. The amount of active agent in the saline is measured in conventional manner, e.g. by HPLC or spectrophotometric techniques, or by determining the radioactivity.
In this test using rat skin the following penetration rates, for example, have been found: […]

[2] = test system: rat hippocampal slices (indirect method for acetylcholinesterase (AChE) inhibition); experiment: Electrically evoked 3H-acetylcholine release from rat hippocampal slices; type: cell-based
Description: Electrically evoked ^3 H-acetylcholine release from rat hippocampal slices
Electrically evoked ^3 H-acetylcholine (^3 H-ACh) release from rat hippocampal slices is a functional in vitro model to investigate presynaptic muscarinic autoreceptor agonists and antagonists. This model can also be used as an indirect method to evaluate drugs which inhibit acetylcholinesterase (AChE). Inhibition of AChE activity leads to the accumulation of endogenous ACh which then interacts with presynaptic muscarinic autoreceptors and inhibits further release of ^3 H-ACh.
Rat hippocampal slices (Wistar strain, 180-200 g) are prepared by chopping into cross sections whole hippocampal slices at a distance of 0.3 mm with a McIlwain tissue chopper. Hippocampal slices obtained from 3 rats are incubated for 30 min. at 23° C. in 6 ml Krebs-Ringer containing 0.1 uCi ^3 H-choline and transferred into the superfusion chamber and superfused with Kreb's medium containing 10 μM hemicholinium-3 at a rate of 1.2 ml/min. at 30° C. Collection of 5 min. fractions of the superfusate begins after 60 min. of superfusion. Two periods of electrical stimulation (2 Hz rectangular pulses 2 msec, 10 mA, 2 min.) are applied after 70 min. (S1) and after 125 min. (S2) of superfusion. […] At the end of the experiments the slices are solubilized in conc. formic acid and tritium content is determined in the superfusate and the solubilized slices. Tritium outflow is expressed as the fractional rate of tritium outflow per min. Electrically evoked tritium outflow is calculated by subtraction of the extrapolated basal tritium outflow from the total tritium outflow during the two min. of electrical stimulation and the following 13 min. and is expressed as percent of the tritium content at the beginning of the sample collection. Drug effects on stimulation evoked tritium outflow are expressed as the ratios S2 /S1. All experiments are run in dublicates using a programmable 12 channel superfusion system. For the calculation a computer program is used.

[3] = biological target: T1, AChE preparations of different rat brain regions (Rattus norvegicus, UniProt P37136); experiment: Acetylcholinesterase inhibition in different rat brain regions (in vitro, Ellman); type: biochemical; settings: table 1
T1 construct: Rat brain tissue is homogenized in cold phosphate buffer pH 7.3; from tissue; host or cells: rat brain (cortex, hippocampus, striatum), supernatant of Triton X-100 homogenate
Protocol: Acetylcholinesterase inhibition in different rat brain regions
AChE preparations of different rat brain regions (Cortex, hippocampus and striatum) are used in this test and the IC50 (inhibitory concentrations in μM) are determined. The enzyme preparations are preincubated with the inhibitor 15 minutes before the determination.
The AChE activity is measured according to the method described by Ellman (Arch. Biochem. Biophys. 82, 70, 1959). Rat brain tissue is homogenized in cold phosphate buffer pH 7.3 (0.25 mM) containing 0.1% of Triton X-100. After centrifugation aliquots of the clear supernatant is used as enzyme source. The enzyme is preincubated with different concentrations of the inhibitor. After different times, substrate (acetylthiocholinjodide 0.5 mM) is added and the remaining activity determined.

[4] = test system: dopamine metabolism in striatum; experiment: Influence on dopamine metabolism; type: in vivo, rat; settings: following administration
Protocol: Influence on dopamine metabolism
Male OFA rats (150-200 g) were used both for acute and subchronic experiments. The animals are maintained under 12 hour periods of light and dark. The animals are sacrificed always between 11.00 and 13.00 h. The brains are excised immediately, dissected on ice according to the method of GLOWINSKI and IVERSEN, J. Neurochem. 13, 655 (1966), frozen on dry ice and the tissue samples stored at -80° C. until analysis.
Dopamine and its metabolites DOPAC (3,4-dihydroxyphenylacetic acid) and HVA (homovanillic acid) are determined in brain tissue extracts which are obtained by homogenisation of the stored brain tissue samples in 0.1N HCl containing 0.05 mM ascorbic acid and subsequent centrifugation. Striatal and cortical tissues are used.
The determination of the metabolites is performed using either the gas chromatography/mass fragmentography (GCMS) technique as described by KAROUM et al., J. Neurochem. 25, 653 (1975) and CATABENI et al., Science 178, 166 (1972) or the fluorometric method as described by […] and MAITRE, Analyt. Biochem. 51, 474 (1973). For the GCMS method, tissue extracts are prepared by adding known amounts of deuterated monoamines and their respective metabolites as internal standards.

[5] = test system: deoxyglucose (DOG) utilisation in the brain; experiment: Muscarinic and nicotinic effects on brain glucose utilisation (deoxyglucose autoradiography); type: in vivo, rat; settings: 7.5 μmol/kg p.o.
Description: Muscarinic and nicotinic effects on brain glucose utilisation
Changes in the functional activity of the CNS are associated with altered deoxyglucose (DOG) utilisation in the brain which can be visualised simultaneously in several brain regions using the autoradiographic method of Sokoloff et al., J. Neurochem. 28, 897 (1977). The administration of cholinergic drugs either direct (muscarinic agonists) or indirect (accumulation of acetylcholine) induces in this model a characteristic "fingerprint" pattern by modifying the regional glucose metabolism.
Male Wistar rats (150-200 g) are used. Drugs are administered at various doses and by different routes (i.v., p.o., i.p.) to animals. [14C]-2-deoxyglucose (125 μC/kg) is injected 45 min. before the animals are sacrificed. The brains are immediately excised, frozen at -80° C. and subsequently cut in slices with a thickness of 20 μm. The optical densities of the radiographic images are measured according to a modification of Sokoloff et al.

[6] = test system: levels of ACh in different regions of rat brain; experiment: Acetylcholine levels in different rat brain regions; type: in vivo; settings: p.o.
Protocol: Acetylcholine levels in different rat brain regions
The animals are killed by microwave irradiation focused on the head (6 kW operating power 2450 Mhz exposure 1.7 sec., Pueschner Mikrowellen-Energietechnik, Bremen). The brains are removed dissected according to Glowinski and Iversen (1966) and stored at -70° C. until analysis. The brain parts are homogenized in 0.1M perchloric acid containing internal deuterated standards of ACh-d4 and Ch(choline)-d4. After centrifugation, endogenous ACh and Ch together with their deuterated variants are extracted with dipicrylamine (2,2',4,4',6,6'-hexanitrodiphenylamine) in dichlormethane as ion pairs. The Ch moities are derivatized with propionyl chloride and the resulting mixture of ACh and propyl choline derivatives are demethylated with sodiumbenzenethiolate and analyzed by mass-fragmentography according to Jenden et al. Anal. Biochem., 55, 438-448, (1973).

T1 sequence (P37136 32-614): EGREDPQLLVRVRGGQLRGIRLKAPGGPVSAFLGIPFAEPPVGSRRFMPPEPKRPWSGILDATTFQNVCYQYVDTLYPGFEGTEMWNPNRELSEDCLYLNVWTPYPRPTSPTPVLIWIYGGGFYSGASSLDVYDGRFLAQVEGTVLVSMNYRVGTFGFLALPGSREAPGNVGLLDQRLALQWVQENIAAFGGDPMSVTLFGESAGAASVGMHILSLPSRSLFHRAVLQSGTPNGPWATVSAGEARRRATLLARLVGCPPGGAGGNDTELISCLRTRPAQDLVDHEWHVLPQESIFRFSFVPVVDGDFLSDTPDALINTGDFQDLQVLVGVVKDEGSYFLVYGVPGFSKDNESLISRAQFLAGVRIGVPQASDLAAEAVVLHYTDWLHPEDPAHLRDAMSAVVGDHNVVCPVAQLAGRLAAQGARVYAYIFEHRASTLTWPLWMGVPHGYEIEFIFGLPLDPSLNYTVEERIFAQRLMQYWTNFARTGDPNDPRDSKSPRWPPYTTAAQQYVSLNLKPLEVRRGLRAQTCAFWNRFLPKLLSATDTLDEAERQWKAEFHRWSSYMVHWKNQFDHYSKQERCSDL

Structure (SMILES)	penetration rate [1] [%]	activity in the evoked 3H-ACh release model [2]	AChE inhibition in vitro, comparison in words [3]	dopamine metabolism in striatum [4]	changes in DOG utilisation in various rat brain regions [5]	influence on ACh levels in rat brain, comparison [6]	antagonism of the inhibitory effect by atropine [2]	inhibition at 100 µM ([2]; Rattus norvegicus, 3 h, 100 μM, read-out: inhibition of electrically evoked 3H-ACh release from hippocampal slices) [%]
CCN(C)C(=O)Oc1cccc([C@H](C)N(C)C)c1 [Compound of formula I in free base form, (S)-N-ethyl-3-[(1-dimethylamino)ethyl]-N-methyl-phenyl-carbamate]	28.0±8.2							
CCN(C)C(=O)Oc1cccc([C@@H](C)N(C)C)c1 [Compound B, reference compound]		inactive	significantly less active	increased	significant changes in DOG utilisation	significantly weaker than that induced by racemate C		
CCN(C)C(=O)Oc1cccc(C(C)N(C)C)c1 (racemic) [Racemate C, (±)-N-ethyl-3-[(1-dimethylamino)ethyl]-N-methyl-phenyl-carbamate]				increased		significantly weaker than that induced by compound A	can be antagonized by atropine	~25
